Here are results for one molecule from PubChem BioAssay (NCI).

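All cell lines were grown in 96-well plates and treated with compound for 48 hours. The concentration for full growth arrest is given as TGI.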 A value given as a limit tells only on which side of the number the result lay.

The assay has as its system SN12K1 renal. The assay is described as follows: NCI tumour cell line growth inhibition, 48 h.

In the case of `COc1ccc(S(=O)(=O)N/N=C/C(=O)O)cc1`, the TGI is over 1250 µM.
